Test results: article PMC10043345, “Discovery of BAR502, as potent steroidal antagonist of leukemia inhibitory factor receptor for the treatment of pancreatic adenocarcinoma” (Frontiers in Oncology, 2023)

Legend:
Assay type in all cases: cell-based, human
MIA PaCa-2 cells [1] = test: Real-time PCR and Western blot of EMT markers, CXCR4 and STAT3 phosphorylation
Protocol: The RNA was extracted from cell lines using and Direct-zol™ RNA MiniPrep w/Zymo-Spin™ IIC Columns (Zymo Research, Irvine, CA, USA)., according to the manufacturer’s protocol as described previously ([20]). After purification from genomic DNA by DNase-I treatment (ThermoFisher Scientific, Waltham, MA USA), 2 µg of RNA from each sample was reverse-transcribed using Kit FastGene Scriptase Basic (Nippon Genetics, Mariaweilerstraße, Düren, Germania) in a 20 μL reaction volume. Finally, 50 ng cDNA were amp LIFied in a 20 μL solution containing 200 nM of each primer and 10 μL of SYBR Select Master Mix (ThermoFisher Scientific). All reactions were performed in triplicate, and the thermal cycling conditions were as follows: 3 min at 95°C, followed by 40 cycles of 95°C for 15 s, 56°C for 20 s and 72°C for 30 s, using a Step One Plus machine (Applied Biosystem). The relative mRNA expression was calculated accordingly to the 2^-ΔCt method. Primers used in this study were designed using the PRIMER3 (http://frodo.wi.mit.edu/primer3/) software using the NCBI […]. RT-PCR primers used in this study for human sample and human cell lines were as follow [forward (for) and reverse (rev)]:
MIA-PaCa 2 cells were seeded in 6-well tissue culture plate (cell density 1.5 * 10^6/well) in DMEM complete medium. After serum starving, cells were incubated with LIF (10 ng/mL) alone or plus BAR502 (10 µM) for 10 min. Total lysates were prepared by homogenization of MIA-PaCa2 cells in RIPA buffer containing phosphatase and protease inhibitors. […] Primary Abs were detected with the HRP-labeled secondary Abs. […] Quantitative densitometry analysis was performed using ImageJ software. The degree of STAT3 phosphorylation was calculated as the ratio between the densitometry readings of […] p-STAT3/STAT3.

MIA PaCa-2 cells [2] = test: Scratch wound healing assay; details: BAR502 10 µM + LIF 10 ng/mL; 0, 24, 48 h
Protocol: MIA PaCa-2 cells were seeded in DMEM complete medium at […] cells/well into 24-well plate and used at 70-80% confluence rate. The assay was performed as previously described ([20]), particularly on the day 1, the cell monolayers were gently scraped vertically with a new 0.2 mL pipette tip across the centre of the well. After scratching, the well was gently washed twice with PBS (Euroclone, Milan, Italy) to remove the detached cells and cell debris and finally fresh medium containing LIF (10 ng/mL) alone or in combination with BAR502 (10 µM) or EC359 (25 nM) was added into each well. Immediately after scratch creation, the 24-plate was placed under a phase-contrast microscope and the first image of the scratch acquired (T0) with using a OPTIKAM Pro Cool 5 – 4083.CL5 camera. Cells were grown for additional 48 h and images taken at 24h (T1) and 48 h (T2). The gap distance between scarps borders was quantified by assessing that area between the two margins of the scratches. All experiments were performed in triplicate.

MIA PaCa-2 cells [3] = test: Annexin V flow cytometry (apoptosis); details: BAR502 10-20 µM + LIF 10 ng/mL; p<0.05
Protocol: MIA-PaCa2 cells were seeded in 6-well tissue culture plate (cell density 700 × 10^3/well) and cultured as specified above. Cells were serum-starved for 8 h and then incubated with LIF (10 ng/mL) alone or plus BAR502 (10, 20 µM) or a vehicle for 24 h. The intracellular flow cytometry staining for Ki-67 was performed using the following reagents: Ki-67 Monoclonal Antibody (SolA15), Alexa Fluor™ 488, (eBioscience™, San Diego, California, USA) and 7-AAD to characterize the cell cycle phases G0-G1 and S-G2-M. Before intracellular IC-FACS, staining cells were fixed for 30 min in the dark using IC Fixation buffer (eBioscience™) and then permeabilized using Permeabilization buffer (10X) (eBioscience™). The staining for Annexin V was performed using the Annexin V Antibody (A13199, Thermofisher Scientific, Waltham, MA, USA) to evaluate the apoptosis rate. Briefly, 5 μL of Annexin V Antibody was added to each 100 μL of cell suspension, and cells were incubated the at room temperature for 15 min. Flow cytometry analyses were carried out using a 3-laser standard configuration ATTUNE NxT (LIFe Technologies, Carlsbad, CA, USA). Data were analyzed using FlowJo software (TreeStar) and the gates set using a fluorescence minus-one (FMO) control strategy. […] The channel in which the conjugated Ab is missing is the one for which the fluorescence minus one provides a gating control.

CC[C@H]1[C@@H](O)C2C3CC[C@H]([C@H](C)CCO)[C@@]3(C)CCC2[C@@]2(C)CC[C@@H](O)C[C@@H]12 (some centres unmarked) [BAR502]
effect on STAT3 phosphorylation caused by LIF (MIA PaCa-2 cells [1]; BAR502 10 µM + LIF 10 ng/mL, Western blot): significantly attenuated STAT3 phosphorylation
effect on vimentin expression (RNA and protein) induced by LIF (MIA PaCa-2 cells [1]; BAR502 10-20 μM + LIF 10 ng/mL): reversed the induction of vimentin expression
effect on CXCR4 mRNA expression increased by LIF (MIA PaCa-2 cells [1]; BAR502 + LIF 10 ng/mL, 24 h): reversed the mRNA expression
reduction of detachment and migration compared to LIF (MIA PaCa-2 cells [2]): ≈ 40%
effect on percentage of Annexin V+ cells (MIA PaCa-2 cells [3]): increased the percentage of Annexin V^+ cells
